Data taken from US9005614B2, “PRLR-specific antibody and uses thereof” (Novartis AG, priority 2006, dated 2015).
Like-named read-outs stand apart in the source and are kept apart here.

T1: cynomolgus PRLR ECD (Macaca fascicularis, UniProt A0A2K5WXK1)
T1 construct: antibodies against human and cynomolgus PRLR ECD
T1 sequence (A0A2K5WXK1 25-234): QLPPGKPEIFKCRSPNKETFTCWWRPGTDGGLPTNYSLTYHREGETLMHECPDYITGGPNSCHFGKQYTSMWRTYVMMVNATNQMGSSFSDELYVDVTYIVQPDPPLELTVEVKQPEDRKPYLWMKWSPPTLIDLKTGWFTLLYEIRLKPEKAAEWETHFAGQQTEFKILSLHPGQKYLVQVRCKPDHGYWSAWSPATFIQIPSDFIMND

T2: human PRLR ECD (Homo sapiens, UniProt P16471)
T2 construct: His6 (C); made in house; host or cells: Tn5 insect cells, baculovirus
T2 sequence (P16471 25-234): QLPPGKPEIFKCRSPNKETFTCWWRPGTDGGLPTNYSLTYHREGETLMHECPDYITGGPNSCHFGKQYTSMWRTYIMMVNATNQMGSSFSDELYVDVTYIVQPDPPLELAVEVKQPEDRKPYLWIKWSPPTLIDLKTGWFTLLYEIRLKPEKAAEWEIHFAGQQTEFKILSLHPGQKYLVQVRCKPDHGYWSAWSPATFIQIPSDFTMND

B1: he.06.275-1: HUMAN-ENGINEERED antibody from XHA.06.275; variable regions SEQ ID NO: 91 and SEQ ID NO: 93 by order of listing (antibody, V domains shown)
VH: DVQLQESGPGLVKPSQTLSLTCTVTGYSITSDYAWNWIRQFPGKKLEWMGYISYSGSTSYNPSLKSRITISRDTSKNQFSLQLNSVTAADTATYFCARDYGYVFDYWGQGTTLTVSS
VL: DVQITQSPSSLSASPGDRITLTCRASKNIYKYLAWYQEKPGKTNNLLIYSGSTLHSGIPSRFSGSGSGTDFTLTISSLQPEDFAMYYCQQHNDYPYTFGQGTKLEIK
B2: he.06.275-3: HUMAN-ENGINEERED antibody from XHA.06.275; variable regions SEQ ID NO: 92 and SEQ ID NO: 93 by order of listing (antibody, V domains shown)
VH: DVQLQESGPGLVKPSQTLSLTCTVTGYSITSDYAWNWIRQFPGKKLEWMGYISYSGSTSYNPSLKSRITISRDTSKNQFSLQLNSVTAADTATYFCARDYGYVFDYWGQGTTLTVSS
VL: DVQITQSPSSLSASPGDRITLTCRASKNIYKYLAWYQEKPGKANKLLIYSGSTLHSGIPSRFSGSGSGTDFTLTISSLQPEDFAMYYCQQHNDYPYTFGQGTKLEIK
B3: he.06.275-2: HUMAN-ENGINEERED antibody from XHA.06.275; variable regions SEQ ID NO: 91 and SEQ ID NO: 94 by order of listing (antibody, V domains shown)
VH: QVQLQESGPGLVKPSQTLSLTCTVSGYSITSDYAWNWIRQFPGKGLEWMGYISYSGSTSYNPSLKSRITISRDTSKNQFSLQLNSVTAADTAVYFCARDYGYVFDYWGQGTTLTVSS
VL: DVQITQSPSSLSASPGDRITLTCRASKNIYKYLAWYQEKPGKTNNLLIYSGSTLHSGIPSRFSGSGSGTDFTLTISSLQPEDFAMYYCQQHNDYPYTFGQGTKLEIK

Tests used:
[1] = tested on: BaF3/PRLR cells; assay: In vitro combination of anti-PRLR mAbs and chemotherapeutics, cell survival (CellTiter Glo); format: cell-based; details: 5 days
Description: Cell survival was determined by CellTiter Glo analysis and is reported aS RLU (y-axis).
Due to the possibility that a potential anti-PRLR therapeutic antibody may be administered in conjunction with cytotoxic drug regimens in the clinic, the effects of such combination therapies on cell survival in culture was investigated. […] An array of clinically-relevant and mechanistically diverse cytotoxic agents were utilized in this assay: Doxorubicin (an anthracycline Topo II inhibitor), Taxol (a microtubule stabilizing agent), Fludarabine (an anti-metabolite), and Cisplatin (a platinum-based DNA cross-linking drug).

[2] = target: T1, cynomolgus PRLR ECD; assay: Biacore kinetic titration, antibody captured on Protein A/G; format: binding; details: Table 9, Cyno PRLR ECD; unit not given
Description: (§1) Affinity of the chimerized and HUMAN ENGINEERED™ antibodies determined by Biacore analysis. Briefly, a CM5 sensor chip (Biacore) immobilized with Protein A/G (Pierce) via NHS/EDC was used to capture approximately 600 RU of antibody on the chip surface. Five concentrations of PRLR ECD beginning at 5 ug/mL (185 nM) and serially diluted at 5× dilution to 0.3 nM were injected from lowest to highest concentration in the kinetic titration injection mode, and 15 minutes of dissociation data was collected. The experiments were double-referenced, i.e. an adjacent flow cell response was subtracted automatically, and the response from a buffer injection experiment was subtracted from the experimental data set. Kinetic and derived parameters (ka, kd and KD) were determined by fitting to a 1:1 Langmuir model using BiaEval software customized to the kinetic titration injection mode. Affinity measurements of both chimeric and all HUMAN ENGINEERED™ antibodies against human and cynomolgus PRLR ECD are summarized in Table 9 and Table 10.

[3] = target: T2, human PRLR ECD; assay: as above; format: binding; details: Table 9, Human PRLR ECD; unit not given
Description: as §1

[4] = Mus musculus, 120 h, co-administered anti-KLH control Ab 1 ug/ml, read-out: chemotherapeutic IC50 with KLH (1 ug/ml)
[5] = Mus musculus, 120 h, co-administered chXHA.06.275 1 ug/ml, read-out: chemotherapeutic IC50 with chXHA.06.275 (1 ug/ml)
[6] = Mus musculus, 120 h, co-administered chXHA.06.642 1 ug/ml, read-out: chemotherapeutic IC50 with chXHA.06.642 (1 ug/ml)

Molecule	IC50 [1, 4] [nM]	IC50 [1, 5] [nM]	IC50 [1, 6] [nM]	ka [2]	kd [2]	ka [3]	kd [3]	other results
N.N.[Cl][Pt][Cl] [Cisplatin]								IC50 ([1]; co-administered anti-KLH control Ab 1 ug/ml, read-out: chemotherapeutic IC50 with KLH (1 ug/ml)): 166 nM; IC50 ([1]; co-administered chXHA.06.275 1 ug/ml, read-out: chemotherapeutic IC50 with chXHA.06.275 (1 ug/ml)): 46.8 nM; IC50 ([1]; co-administered chXHA.06.642 1 ug/ml, read-out: chemotherapeutic IC50 with chXHA.06.642 (1 ug/ml)): 27.6 nM
COc1cccc2c1C(=O)c1c(O)c3c(c(O)c1C2=O)C[C@@](O)(C(=O)CO)C[C@@H]3O[C@H]1C[C@H](N)[C@H](O)[C@H](C)O1 [Doxorubicin]	6.44	2.56	2.14					
Nc1nc(F)nc2c1ncn2[C@@H]1O[C@H](CO)[C@@H](O)[C@@H]1O [Fludarabine]	105000	93800	40000					
CC(=O)O[C@H]1C(=O)[C@@]2(C)[C@H]([C@H](OC(=O)c3ccccc3)[C@]3(O)C[C@H](OC(=O)[C@H](O)[C@@H](NC(=O)c4ccccc4)c4ccccc4)C(C)=C1C3(C)C)[C@]1(OC(C)=O)CO[C@@H]1C[C@@H]2O [Taxol]	4.14	2.45	2.07					
B1				3.6E+05	5.7E−04	6.2E+05	3.1E−04	
B2				3.9E+05	5.0E−04	6.4E+05	2.7E−04	
B3				3.7E+05	6.9E−04	6.0E+05	3.7E−04	
